Data from the supplement of paper PMC10307832.

Experiments:
Experiment in all cases: relative viability (nuclei count vs DMSO), 5 days (fraction); higher = more cells survive
201T = test system: 201T
In short: (§1)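 One day after seeding in 1536-well plates, lung cancer cell lines were dosed by pin tool. Dosing was either single-drug or a fixed anchor-drug dose plus five library-drug doses (not always all listed) in √10 steps. After 5 days, nuclei were stained in one fix-and-stain step and counted on 4× images, and relative viability is the nuclei count of treated wells over that of vehicle wells, given as the median of duplicate plates.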

ABC-1 = test system: ABC-1
In short: as §1

CAL-12T = test system: CAL-12T
In short: as §1

ChaGo-K-1 = test system: ChaGo-K-1
In short: as §1

EMC-BAC-2 = test system: EMC-BAC-2
In short: as §1

H3255 = test system: H3255
In short: as §1

HOP-62 = test system: HOP-62
In short: as §1

LXF-289 = test system: LXF-289
In short: as §1

NCI-H1651 = test system: NCI-H1651
In short: as §1

NCI-H1734 = test system: NCI-H1734
In short: as §1

NCI-H1755 = test system: NCI-H1755
In short: as §1

NCI-H2009 = test system: NCI-H2009
In short: as §1

NCI-H2087 = test system: NCI-H2087
In short: as §1

NCI-H2126 = test system: NCI-H2126
In short: as §1

NCI-H3122 = test system: NCI-H3122
In short: as §1

NCI-H322M = test system: NCI-H322M
In short: as §1

NCI-H441 = test system: NCI-H441
In short: as §1

NCI-H596 = test system: NCI-H596
In short: as §1

NCI-H647 = test system: NCI-H647
In short: as §1

PC-14 = test system: PC-14
In short: as §1

O=c1[nH]c2ccccc2n1C1CCN(CCCC(c2ccc(F)cc2)c2ccc(F)cc2)CC1 [Pimozide] + CC(C)C[C@H](NC(=O)[C@H](Cc1ccccc1)NC(=O)c1cnccn1)B(O)O [Bortezomib] (partner 0.002 µM)
relative viability (201T; first compound 0.08 µM): 1.07
relative viability (201T; first compound 0.253 µM): 1.05
relative viability (201T; first compound 0.8 µM): 1.02
relative viability (201T; first compound 2.53 µM): 1.08
relative viability (201T; first compound 8 µM): 1.01
relative viability (ABC-1; first compound 0.08 µM): 0.289
relative viability (ABC-1; first compound 0.253 µM): 0.284
relative viability (ABC-1; first compound 0.8 µM): 0.34
relative viability (ABC-1; first compound 2.53 µM): 0.227
relative viability (ABC-1; first compound 8 µM): 0.26
relative viability (CAL-12T; first compound 0.08 µM): 0.875
relative viability (CAL-12T; first compound 0.253 µM): 0.979
relative viability (CAL-12T; first compound 0.8 µM): 0.821
relative viability (CAL-12T; first compound 2.53 µM): 0.87
relative viability (CAL-12T; first compound 8 µM): 0.828
relative viability (ChaGo-K-1; first compound 0.08 µM): 1.01
relative viability (ChaGo-K-1; first compound 0.253 µM): 0.883
relative viability (ChaGo-K-1; first compound 0.8 µM): 0.977
relative viability (ChaGo-K-1; first compound 2.53 µM): 1.01
relative viability (ChaGo-K-1; first compound 8 µM): 0.872
relative viability (EMC-BAC-2; first compound 0.08 µM): 0.992
relative viability (EMC-BAC-2; first compound 0.253 µM): 1.03
relative viability (EMC-BAC-2; first compound 0.8 µM): 0.972
relative viability (EMC-BAC-2; first compound 2.53 µM): 1.04
relative viability (EMC-BAC-2; first compound 8 µM): 1.05
relative viability (H3255; first compound 0.253 µM): 0.802
relative viability (H3255; first compound 0.8 µM): 0.732
relative viability (H3255; first compound 2.53 µM): 0.759
relative viability (H3255; first compound 8 µM): 0.732
relative viability (HOP-62; first compound 0.08 µM): 0.935
relative viability (HOP-62; first compound 0.253 µM): 0.889
relative viability (HOP-62; first compound 2.53 µM): 0.749
relative viability (HOP-62; first compound 8 µM): 1.02
relative viability (LXF-289; first compound 0.08 µM): 0.989
relative viability (LXF-289; first compound 0.253 µM): 0.966
relative viability (LXF-289; first compound 0.8 µM): 0.917
relative viability (LXF-289; first compound 2.53 µM): 0.94
relative viability (LXF-289; first compound 8 µM): 0.865
relative viability (NCI-H1651; first compound 0.08 µM): 0.903
relative viability (NCI-H1651; first compound 0.8 µM): 0.993
relative viability (NCI-H1651; first compound 2.53 µM): 0.897
relative viability (NCI-H1651; first compound 8 µM): 0.972
relative viability (NCI-H1734; first compound 0.08 µM): 0.903
relative viability (NCI-H1734; first compound 0.253 µM): 0.958
relative viability (NCI-H1734; first compound 0.8 µM): 0.916
relative viability (NCI-H1734; first compound 2.53 µM): 0.993
relative viability (NCI-H1734; first compound 8 µM): 0.844
relative viability (NCI-H1755; first compound 0.08 µM): 0.881
relative viability (NCI-H1755; first compound 0.253 µM): 0.91
relative viability (NCI-H1755; first compound 0.8 µM): 0.844
relative viability (NCI-H1755; first compound 2.53 µM): 0.937
relative viability (NCI-H1755; first compound 8 µM): 0.674
relative viability (NCI-H2009; first compound 0.08 µM): 0.999
relative viability (NCI-H2009; first compound 0.253 µM): 0.999
relative viability (NCI-H2009; first compound 0.8 µM): 0.879
relative viability (NCI-H2009; first compound 2.53 µM): 0.888
relative viability (NCI-H2009; first compound 8 µM): 0.769
relative viability (NCI-H2087; first compound 0.08 µM): 0.86
relative viability (NCI-H2087; first compound 0.253 µM): 0.815
relative viability (NCI-H2087; first compound 0.8 µM): 0.764
relative viability (NCI-H2087; first compound 2.53 µM): 0.765
relative viability (NCI-H2087; first compound 8 µM): 0.585
relative viability (NCI-H2126; first compound 0.08 µM): 1.14
relative viability (NCI-H2126; first compound 0.253 µM): 1.1
relative viability (NCI-H2126; first compound 0.8 µM): 1.1
relative viability (NCI-H2126; first compound 2.53 µM): 1.11
relative viability (NCI-H2126; first compound 8 µM): 1.05
relative viability (NCI-H3122; first compound 0.08 µM): 0.983
relative viability (NCI-H3122; first compound 0.253 µM): 0.959
relative viability (NCI-H3122; first compound 0.8 µM): 1.01
relative viability (NCI-H3122; first compound 2.53 µM): 0.981
relative viability (NCI-H3122; first compound 8 µM): 1.01
relative viability (NCI-H322M; first compound 0.253 µM): 1.26
relative viability (NCI-H322M; first compound 0.8 µM): 1.18
relative viability (NCI-H322M; first compound 2.53 µM): 1.16
relative viability (NCI-H322M; first compound 8 µM): 1.09
relative viability (NCI-H441; first compound 0.08 µM): 0.692
relative viability (NCI-H441; first compound 0.253 µM): 0.366
relative viability (NCI-H441; first compound 0.8 µM): 0.325
relative viability (NCI-H441; first compound 2.53 µM): 0.451
relative viability (NCI-H441; first compound 8 µM): 0.336
relative viability (NCI-H596; first compound 0.08 µM): 0.974
relative viability (NCI-H596; first compound 0.253 µM): 0.968
relative viability (NCI-H596; first compound 0.8 µM): 1
relative viability (NCI-H596; first compound 2.53 µM): 0.994
relative viability (NCI-H596; first compound 8 µM): 0.935
relative viability (NCI-H647; first compound 0.08 µM): 1.08
relative viability (NCI-H647; first compound 0.253 µM): 0.855
relative viability (NCI-H647; first compound 0.8 µM): 0.851
relative viability (NCI-H647; first compound 2.53 µM): 0.944
relative viability (NCI-H647; first compound 8 µM): 0.529
relative viability (PC-14; first compound 0.08 µM): 0.855
relative viability (PC-14; first compound 0.253 µM): 0.812
relative viability (PC-14; first compound 0.8 µM): 0.844
relative viability (PC-14; first compound 2.53 µM): 0.912
relative viability (PC-14; first compound 8 µM): 0.81
